# From patent publication US11959486B2, “Stable liquid formulation of AMG 416 (etelcalcetide)” (AMGEN INC., priority 2013, dated 2024)
# Test: Stability of liquid formulations over range of pH 2-6 in succinate-buffered saline, HPLC purity, with extrapolation (Example 3)
# Type: physicochemical
# Details: 2.5 mg/mL
# Protocol: The solution was divided evenly into five 4 mL portions which were adjusted to pH 2, 3, 4, 5 and 6, respectively, with NaOH and HCl as needed. Three 1 mL solutions were aliquoted from each portion and incubated at 2-8° C., room temperature (about 25° C.), and 40° C., respectively. The remaining 1 mL solution in each aliquot was diluted with pH 4.5 succinate buffered saline to 4 mL of 2.5 mg/mL peptide concentration, pH adjusted, and incubated in the same manner.
# Based on the extent of degradation at 28 days, predictions of the extent of degradation were calculated as described, supra. Bolded values indicate conditions which show less than 10% degradation, and which may be preferred for a liquid formulation. Conditions where the sample at 28 days show slightly higher purity than the initial data are presented as 0.0% for all projections.
# At each pH value, the degradation data for each of three temperatures is compared to data from the other two temperatures to calculate the observed acceleration. The predicted acceleration is by simple application of Arrhenius principles as described above.
structure (smiles),measurement,setting,value
"CC(=O)N[C@H](CSSC[C@H](N)C(=O)O)C(=O)N[C@H](C)C(=O)N[C@H](CCCNC(=N)N)C(=O)N[C@H](CCCNC(=N)N)C(=O)N[C@H](CCCNC(=N)N)C(=O)N[C@H](C)C(=O)N[C@H](CCCNC(=N)N)C(N)=O [AMG 416, N-acetyl-D-cysteinyl-D-alanyl-D-arginyl-D-arginyl-D-arginyl-D-alanyl-D-arginamide disulfide with L-cysteine]",Observed degradation at 28 days,"pH 2, 2-8° C.",0.0%
same,Observed degradation at 28 days,"pH 2, 40° C.",9.1%
same,Observed degradation at 28 days,"pH 2, RT",0.6%
same,Calculated Degradation 1 y 2-8° C.,"pH 2, from 2-8° C. data",0.0%
same,Calculated Degradation 1 y RT,"pH 2, from 2-8° C. data",0.0%
same,Calculated Degradation 2 y 2-8° C.,"pH 2, from 2-8° C. data",0.0%
same,Calculated Degradation 2 y RT,"pH 2, from 2-8° C. data",0.0%
same,Calculated Degradation 1 y,"pH 2, from 40° C. data",116.5%
same,Calculated Degradation 1 y RT,"pH 2, from 40° C. data",29.1%
same,Calculated Degradation 2 y 2-8° C.,"pH 2, from 40° C. data",14.6%
same,Calculated Degradation 2 y RT,"pH 2, from 40° C. data",58.3%
same,Calculated Degradation 1 y,"pH 2, from RT data",7.9%
same,Calculated Degradation 1 y RT,"pH 2, from RT data",7.9%
same,Calculated Degradation 2 y 2-8° C.,"pH 2, from RT data",4.0%
same,Calculated Degradation 2 y RT,"pH 2, from RT data",15.9%
same,Observed degradation at 28 days,"pH 3, 2-8° C.",0.0%
same,Observed degradation at 28 days,"pH 3, 40° C.",1.8%
same,Observed degradation at 28 days,"pH 3, RT",0.0%
same,Calculated Degradation 1 y 2-8° C.,"pH 3, from 2-8° C. data",0.0%
same,Calculated Degradation 1 y RT,"pH 3, from 2-8° C. data",0.0%
same,Calculated Degradation 2 y 2-8° C.,"pH 3, from 2-8° C. data",0.0%
same,Calculated Degradation 2 y RT,"pH 3, from 2-8° C. data",0.0%
same,Calculated Degradation 1 y,"pH 3, from 40° C. data",22.5%
same,Calculated Degradation 1 y RT,"pH 3, from 40° C. data",5.6%
same,Calculated Degradation 2 y 2-8° C.,"pH 3, from 40° C. data",2.8%
same,Calculated Degradation 2 y RT,"pH 3, from 40° C. data",11.3%
same,Calculated Degradation 1 y,"pH 3, from RT data",0.0%
same,Calculated Degradation 1 y RT,"pH 3, from RT data",0.0%
same,Calculated Degradation 2 y 2-8° C.,"pH 3, from RT data",0.0%
same,Calculated Degradation 2 y RT,"pH 3, from RT data",0.0%
same,Observed degradation at 28 days,"pH 4, 2-8° C.",−0.1%
same,Observed degradation at 28 days,"pH 4, 40° C.",6.9%
same,Observed degradation at 28 days,"pH 4, RT",0.3%
same,Calculated Degradation 1 y 2-8° C.,"pH 4, from 2-8° C. data",0.0%
same,Calculated Degradation 1 y RT,"pH 4, from 2-8° C. data",0.0%
same,Calculated Degradation 2 y 2-8° C.,"pH 4, from 2-8° C. data",0.0%
same,Calculated Degradation 2 y RT,"pH 4, from 2-8° C. data",0.0%
same,Calculated Degradation 1 y,"pH 4, from 40° C. data",88.7%
same,Calculated Degradation 1 y RT,"pH 4, from 40° C. data",22.2%
same,Calculated Degradation 2 y 2-8° C.,"pH 4, from 40° C. data",11.1%
same,Calculated Degradation 2 y RT,"pH 4, from 40° C. data",44.3%
same,Calculated Degradation 1 y,"pH 4, from RT data",3.6%
same,Calculated Degradation 1 y RT,"pH 4, from RT data",3.6%
same,Calculated Degradation 2 y 2-8° C.,"pH 4, from RT data",1.8%
same,Calculated Degradation 2 y RT,"pH 4, from RT data",7.2%
same,Observed degradation at 28 days,"pH 5, 2-8° C.",0.2%
same,Observed degradation at 28 days,"pH 5, 40° C.",26.1%
same,Observed degradation at 28 days,"pH 5, RT",2.9%
same,Calculated Degradation 1 y 2-8° C.,"pH 5, from 2-8° C. data",2.9%
same,Calculated Degradation 1 y RT,"pH 5, from 2-8° C. data",11.8%
same,Calculated Degradation 2 y 2-8° C.,"pH 5, from 2-8° C. data",5.9%
same,Calculated Degradation 2 y RT,"pH 5, from 2-8° C. data",23.5%
same,Calculated Degradation 1 y,"pH 5, from 40° C. data",333.6%
same,Calculated Degradation 1 y RT,"pH 5, from 40° C. data",83.4%
same,Calculated Degradation 2 y 2-8° C.,"pH 5, from 40° C. data",41.7%
same,Calculated Degradation 2 y RT,"pH 5, from 40° C. data",166.8%
same,Calculated Degradation 1 y,"pH 5, from RT data",37.7%
same,Calculated Degradation 1 y RT,"pH 5, from RT data",37.7%
same,Calculated Degradation 2 y 2-8° C.,"pH 5, from RT data",18.9%
same,Calculated Degradation 2 y RT,"pH 5, from RT data",75.5%
same,Observed degradation at 28 days,"pH 6, 2-8° C.",0.8%
same,Observed degradation at 28 days,"pH 6, 40° C.",45.0%
same,Observed degradation at 28 days,"pH 6, RT",18.1%
same,Calculated Degradation 1 y 2-8° C.,"pH 6, from 2-8° C. data",10.7%
same,Calculated Degradation 1 y RT,"pH 6, from 2-8° C. data",43.0%
same,Calculated Degradation 2 y 2-8° C.,"pH 6, from 2-8° C. data",21.5%
same,Calculated Degradation 2 y RT,"pH 6, from 2-8° C. data",86.0%
same,Calculated Degradation 1 y,"pH 6, from 40° C. data",575.7%
same,Calculated Degradation 1 y RT,"pH 6, from 40° C. data",143.9%
same,Calculated Degradation 2 y 2-8° C.,"pH 6, from 40° C. data",72.0%
same,Calculated Degradation 2 y RT,"pH 6, from 40° C. data",287.8%
same,Calculated Degradation 1 y,"pH 6, from RT data",231.0%
same,Calculated Degradation 1 y RT,"pH 6, from RT data",231.0%
same,Calculated Degradation 2 y 2-8° C.,"pH 6, from RT data",115.5%
same,Calculated Degradation 2 y RT,"pH 6, from RT data",462.1%
same,predicted degradation over 2 years at RT,"pH range 2-4, extrapolated from the 2-8° C. data",less than 10%
